Consider 4 molecules from US5994303A, “Use of insulin and IGF-I” (Chiron Corporation, priority 1994, dated 1999).

Test [1] deals with Male Sprague-Dawley rats. Put plainly: Example 1: dexamethasone-treated rats infused with saline, rhGH or rhIGF-I; body weight gain and nitrogen retention. Type of test: in vivo, rat. Conditions: for Retention of nitrogen (nitrogen balance): 8 days infusion with Dex, rhIGF-I 500 per day vs saline or rhGH. The method, then:
On day zero the rats were anaesthetized intraperitoneally with 0.4 ml per 100 g body weight of a mixture of Rompun (20 mg·ml^-1), Ketalar (50 mg·ml^-1) and Saline (0.9%) in 1:2:3 volume proportions. The hair on the back of the rats was shaved off and the exposed skin carefully washed with 0.05% chlorhexidine (Pharmacia, Stockholm, Sweden) and 0.4% jodopax (Molnlycke, Goteborg, Sweden), both being diluted in 70% alcohol. Two mutually parallel incisions, each of 15 mm in length, were then made along the dorsal midline. The incisions penetrated the epidermis, dermis and subcutaneous muscle but left the deep fascia intact. Two subcutaneous pockets were made on both sides of the incisions by separating the subcutaneous muscle from the deep fascia. One (Exp. I) or two (Exp. 2) mini-pumps were implanted in each pocket. The wounds were closed with sutures 4-0 Johnson & Johnson). Osmotic mini-pumps (Alzet 2001, Alza Corporation, Palo Alto, USA) releasing 1 μl·h^-1 for 8 days were used for continuous delivery of hormones and Dex to the animals. The pumps were filled to a volume of 0.22 ml with solutions of rhGH (14.4 mg·ml^-1, Genotropin®, Pharmacia), rhIGF-I (20 mg·ml^-1, Igef®, Pharmacia, Kabi Peptide Hormones, Stockholm, Sweden), insulin (1.57 mg/ml, Actrapid®, Novo, Copenhagen, Denmark), Dex (1.04 mg·ml^-1, Decadron, Merck Sharp & Dohme International, […], USA) or Saline (0.9%). Two (Example 1) or four (Example 2) pumps combined as described above were implanted in each rat. Implantation of the pumps was performed under strictly aseptic conditions. Total feed intake was registered throughout the full 8 day experimental period. Urine and faeces were collected daily, pooled and kept at -20° C. until analysed. Excreta was collected by housing the animals in individual metabolism cages that were specially designed for the separation of urine and faeces. In order to inhibit urease-activity in the urine, 1 ml of 5% sulphuric acid was pipetted every morning in the collection vessels. The 24 hour collections of urine were pooled individually for each treatment period and immediately frozen after the collection. Similarly, the samples of faeces were also pooled individually for each treatment period and kept frozen (-20° C.) until analysis. Urea in serum was determined spectrophotometrically by using the Urea UV Uni-Kit II (Roche) with an autoanalyzer (Cobas Mira, Roche Co, Basel, Switzerland). Urea values were expressed in mmol/l. The total nitrogen content in urine was determined with the aid of the Antek Pyro-Chemilumicence Nitrogen System. The apparatus used comprised the […] nitrogen analyser with Liquid Auto Sampler 736-2 and a pyrolysis tube with a ceramic […] Instruments Inc., Houston, Tex., U.S.A.). The frozen urinary samples were thawed and diluted 1:100 with 0.1 M HCl and then analysed. The urinary nitrogen values were then calculated as mg nitrogen excreted. Total nitrogen in faeces was determined by an established Kjeldahl method (Kjeltec System, Tecator AB, Halsingborg, Sweden). The frozen faecal samples were thawed and dried in an oven at 60° C. overnight. The weight of the dried sample was noted and the sample then ground. 0.20 g of the milled faecal sample was mixed in a Kjeldahl digestion tube with 10.0 ml of concentrated sulphuric acid. 2.0 ml of a 30% solution of H2 O2 (30% Perhydrol, Merck, Darmstadt, Germany) was added and mixed carefully. One catalyst tablet (Kjeltabs C A, Thompson & Capper, Runcom, Cheshire, UK) was added to each sample. The mixture was digested at 380° C. for at least one hour or until complete bleaching of the sample was achieved. […] The faecal nitrogen values were calculated as mg nitrogen excreted. Data were subjected to a one-way analysis of variance in which the effect of treatment was considered the prime source of variation. Calculations were executed by the GLM procedure of the SAS program (SAS 1985). […]

The subject of test [2] is Male Sprague-Dawley rats. Put plainly: Example 2: dexamethasone-treated rats infused with insulin, rhGH, rhIGF-I and combinations; feed intake, nitrogen digestion and retention, serum urea. Type of test: in vivo, rat. The conditions noted are these: for Feed intake / feed consumption (in words) / Nitrogen balance / nitrogen wasting induced by dexamethasone (in words) / Relative nitrogen retention (retained N/digested N x 100): 8 days infusion; for Nitrogen balance / nitrogen wasting induced by dexamethasone (in words): Dex 26 ug/day with or without peptides; for Relative nitrogen retention (retained N/digested N x 100): Dex 26 ug/day with peptides: insulin 39, rhGH 360, rhIGF-I 500 ug/day, mean, pooled SE. The method, then:
On day zero the rats were anaesthetized intraperitoneally with 0.4 ml per 100 g body weight of a mixture of Rompun (20 mg·ml^-1), Ketalar (50 mg·ml^-1) and Saline (0.9%) in 1:2:3 volume proportions. The hair on the back of the rats was shaved off and the exposed skin carefully washed with 0.05% chlorhexidine (Pharmacia, Stockholm, Sweden) and 0.4% jodopax (Molnlycke, Goteborg, Sweden), both being diluted in 70% alcohol.
Two mutually parallel incisions, each of 15 mm in length, were then made along the dorsal midline. The incisions penetrated the epidermis, dermis and subcutaneous muscle but left the deep fascia intact. Two subcutaneous pockets were made on both sides of the incisions by separating the subcutaneous muscle from the deep fascia. One (Exp. I) or two (Exp. 2) mini-pumps were implanted in each pocket. The wounds were closed with sutures 4-0 Johnson & Johnson).
Osmotic mini-pumps (Alzet 2001, Alza Corporation, Palo Alto, USA) releasing 1 μl·h^-1 for 8 days were used for continuous delivery of hormones and Dex to the animals. The pumps were filled to a volume of 0.22 ml with solutions of rhGH (14.4 mg·ml^-1, Genotropin®, Pharmacia), rhIGF-I (20 mg·ml^-1, Igef®, Pharmacia, Kabi Peptide Hormones, Stockholm, Sweden), insulin (1.57 mg/ml, Actrapid®, Novo, Copenhagen, Denmark), Dex (1.04 mg·ml^-1, Decadron, Merck Sharp & Dohme International, Rathway, USA) or Saline (0.9%). Two (Example 1) or four (Example 2) pumps combined as described above were implanted in each rat. Implantation of the pumps was performed under strictly aseptic conditions.
Total feed intake was registered throughout the full 8 day experimental period. Urine and faeces were collected daily, pooled and kept at -20° C. until analysed. Excreta was collected by housing the animals in individual metabolism cages that were specially designed for the separation of urine and faeces. In order to inhibit urease-activity in the urine, 1 ml of 5% sulphuric acid was pipetted every morning in the collection vessels. The 24 hour collections of urine were pooled individually for each treatment period and immediately frozen after the collection. Similarly, the samples of faeces were also pooled individually for each treatment period and kept frozen (-20° C.) until analysis.
Blood samples were taken on day zero and on the last day of the experiment. During anaesthesia, blood was withdrawn quickly from the orbital plexus by using a glass capillary. On each sampling occasion 0.75 ml blood was taken 5 from each animal. One third (0.25 ml) of the blood sample was collected in a microtainer tube containing EDTA (Beckton and Dickinson) for analysis of glucose. Serum was prepared from the remaining blood sample (0.5 ml) in accordance with standard methods and analysed for urea.
Urea in serum was determined spectrophotometrically by using the Urea UV Uni-Kit II (Roche) with an autoanalyzer (Cobas Mira, Roche Co, Basel, Switzerland). Urea values were expressed in mmol/l. The total nitrogen content in urine was determined with the aid of the Antek Pyro-Chemilumicence Nitrogen System. The apparatus used comprised the Antek 7000N nitrogen analyser with Liquid Auto Sampler 736-2 and a pyrolysis tube with a ceramic liner (Antek Instruments Inc., Houston, Tex., U.S.A.). The frozen urinary samples were thawed and diluted 1:100 with 0.1 M HCl and then analysed. The urinary nitrogen values were then calculated as mg nitrogen excreted.
Total nitrogen in faeces was determined by an established Kjeldahl method (Kjeltec System, Tecator AB, Halsingborg, Sweden). The frozen faecal samples were thawed and dried in an oven at 60° C. overnight. The weight of the dried sample was noted and the sample then ground. 0.20 g of the milled faecal sample was mixed in a Kjeldahl digestion tube with 10.0 ml of concentrated sulphuric acid. 2.0 ml of a 30% solution of H2 O2 (30% Perhydrol, Merck, Darmstadt, Germany) was added and mixed carefully.

[3] abbreviates: 8 days s.c. mini-pump infusion, at every Dex dose (26, 13 or 6.5 per day), rhGH 360, rhIGF-I 500 per day, vs saline.

“Also recorded” adds a separate entry of the source.

Consider “rhIGF-I: recombinant human insulin-like growth factor I (Igef, Pharmacia)”, for which the “Retention of nitrogen (nitrogen balance)” value in test [1] is “significantly (p<0.05) higher; also recorded: followed the same pattern”. Also, in test [1] (setting [3]), the Body weight gain result is given as “significantly (p<0.05) higher weight gain in comparison with saline; also recorded: significantly (p<0.05) increased”. Further, in test [2], the “Feed intake / feed consumption (in words)” value was “slightly stimulated feed consumption”, the “Nitrogen balance / nitrogen wasting induced by dexamethasone (in words)” value is on record as “decreased significantly the wasting of nitrogen induced by dexamethasone” and the “Relative nitrogen retention (retained N/digested N x 100)” value (“Relative nitrogen retention” for short) is 23.0%.
Turning to insulin: insulin (Actrapid, Novo), in test [2], the “Nitrogen balance / nitrogen wasting induced by dexamethasone (in words)” value is “without effect” and the “Relative nitrogen retention” value is 11.9%.
On to `C[C@@H]1C[C@H]2[C@@H]3CCC4=CC(=O)C=C[C@]4(C)[C@@]3(F)[C@@H](O)C[C@]2(C)[C@@]1(O)C(=O)CO` [Dex, dexamethasone, reference compound], for which, in test [1] (setting [3]), the Body weight gain entry is on record as “general decrease with increased Dex dose”. Further, in test [2], the “Feed intake / feed consumption (in words)” value was “generally decreased feed intake”, the “Nitrogen balance / nitrogen wasting induced by dexamethasone (in words)” value is “decrease the nitrogen balance dramatically” and the “Relative nitrogen retention” value is recorded as 7.2%. The “Reduction of feed intake” value in test [2] (Dex 26 per day, 8 days) is “approximately 20%”.
Consider “rhGH: recombinant human growth hormone (Genotropin, Pharmacia)”, for which the “Retention of nitrogen (nitrogen balance)” value in test [1] is listed as “followed the same pattern”. The Body weight gain entry is recorded as “negative values for body weight gain” in test [1] (8 days infusion, at the medium and high Dex infusion dose); “the opposite effect” in test [1] (setting [3]). Besides, the “Nitrogen balance / nitrogen wasting induced by dexamethasone (in words)” value in test [2] is given as “not found to counteract the nitrogen wasting induced by dexamethasone”; in test [2] (listed as GH), “without effect”. Also, in test [2], the “Relative nitrogen retention” value is reported as 3.8%.
